# In patent US20200171056A1, “SULFONYLUREA COMPOUNDS IN THE TREATMENT OF DISEASE ASSOCIATED WITH UV-INDUCED DAMAGE” (CeMM - Forschungszentrum für Molekulare Medizin GmbH, priority 2017, published 2020):
# System: DNA repair knockout HAP1 cell lines
# Test: Percentage of rescue in panel of 20 DNA repair-deficient cell lines after UV
# Type: cell-based, human
# Description: FIG. 3. Loss of MUTYH mimics acetohexamide function A. Bubble plot displaying the percentage of rescue, defined as the difference in survival of a given cell line treated with acetohexamide compared to untreated, following UV irradiation. The light grey, dark grey bubbles highlight ΔMUTYH, ΔXPA […], and black bubbles indicate the rest of the knockout cell lines and WT HAP1. The size of the bubbles indicates the significance as log10 (p-value). BER: base excision repair; NER: nucleotide excision repair; DSBR; double-strand break repair; MMR: mis-match repair; FA: Fanconi aneamia; DR; direct reversal; TLS; translesion synthesis. B. Survival of WT and MUTYH-deficient (ΔMUTYH) cells with or without 0.5 mM acetohexamide treatment, followed by UV irradiation, as assessed after 3 days using CellTitre-Glo. Loss of MUTYH protein was confirmed by immunoblotting using an anti-MUTYH antibody. ACTIN was used as a loading control. C. Deletion of MUTYH in WT HAP1 or an XPA-deficient background was confirmed by immunoblotting using an anti-MUTYH antibody. TUBULIN was used as a loading control. D. Clonogenic survival of WT, ΔXPA or ΔXPA-MUTYH cells irradiated with UV at the indicated doses or left untreated. Cells were fixed and stained 10 days later.
# Since acetohexamide enhanced the clearance of CPDs in NER-deficient cells, it was speculated that its mode-of-action could be via one the known DNA excision repair pathways. Thus, a panel of 20 DNA repair-deficient cell lines was prepared using CRISPR-Cas9, representing all DNA repair pathways. Pol kappa (POLK) was selected to represent translesion synthesis (TLS) polymerases since it has roles in the repair synthesis step of NER. Subsequently, these cell lines (as well as two wildtype controls) were treated with acetohexamide and exposed to UV irradiation (FIG. 3A). […]
# The DNA repair knockout cell lines were generated in collaboration with Horizon Genomics. […] Subsequently, the genomic DNA was isolated using Direct PCR-Cell Kit (PeqLab) and the region targeted by the gRNA was PCR amplified and analyzed by Sanger sequencing. […]
compound,measurement,setting,value
CC(=O)c1ccc(S(=O)(=O)NC(=O)NC2CCCCC2)cc1 [acetohexamide],"protective effect against UV-induced damage (percentage of rescue), knockout cell lines and wildtype",all knockout lines other than ΔMUTYH (FIG. 3A),comparable protective effect against UV-induced damage on all the knockout cell lines tested (and also to wildtype cells)
same,protective effect on NER-deficient cell lines,"knock out cell lines absent of XPA, XPC, ERCC8 (CSA), ERCC6 (CSB) or XPV (POLH)",general protective effect on NER-deficient cell lines
same,"protective effect against UV-induced damage (percentage of rescue), cells lacking MUTYH",ΔMUTYH (FIG. 3A),no effect on cells lacking MUTYH
